Key:
PIK3CA (human) = PIK3CA (human) (UniProt P42336); test: Enzyme Assay
PIK3CG (human) = PIK3CG (human) (UniProt P48736); test: Inhibition of PIK3CG Kinase Activity
PIK3CG (human), sequence (P48736 whole entry, looked up): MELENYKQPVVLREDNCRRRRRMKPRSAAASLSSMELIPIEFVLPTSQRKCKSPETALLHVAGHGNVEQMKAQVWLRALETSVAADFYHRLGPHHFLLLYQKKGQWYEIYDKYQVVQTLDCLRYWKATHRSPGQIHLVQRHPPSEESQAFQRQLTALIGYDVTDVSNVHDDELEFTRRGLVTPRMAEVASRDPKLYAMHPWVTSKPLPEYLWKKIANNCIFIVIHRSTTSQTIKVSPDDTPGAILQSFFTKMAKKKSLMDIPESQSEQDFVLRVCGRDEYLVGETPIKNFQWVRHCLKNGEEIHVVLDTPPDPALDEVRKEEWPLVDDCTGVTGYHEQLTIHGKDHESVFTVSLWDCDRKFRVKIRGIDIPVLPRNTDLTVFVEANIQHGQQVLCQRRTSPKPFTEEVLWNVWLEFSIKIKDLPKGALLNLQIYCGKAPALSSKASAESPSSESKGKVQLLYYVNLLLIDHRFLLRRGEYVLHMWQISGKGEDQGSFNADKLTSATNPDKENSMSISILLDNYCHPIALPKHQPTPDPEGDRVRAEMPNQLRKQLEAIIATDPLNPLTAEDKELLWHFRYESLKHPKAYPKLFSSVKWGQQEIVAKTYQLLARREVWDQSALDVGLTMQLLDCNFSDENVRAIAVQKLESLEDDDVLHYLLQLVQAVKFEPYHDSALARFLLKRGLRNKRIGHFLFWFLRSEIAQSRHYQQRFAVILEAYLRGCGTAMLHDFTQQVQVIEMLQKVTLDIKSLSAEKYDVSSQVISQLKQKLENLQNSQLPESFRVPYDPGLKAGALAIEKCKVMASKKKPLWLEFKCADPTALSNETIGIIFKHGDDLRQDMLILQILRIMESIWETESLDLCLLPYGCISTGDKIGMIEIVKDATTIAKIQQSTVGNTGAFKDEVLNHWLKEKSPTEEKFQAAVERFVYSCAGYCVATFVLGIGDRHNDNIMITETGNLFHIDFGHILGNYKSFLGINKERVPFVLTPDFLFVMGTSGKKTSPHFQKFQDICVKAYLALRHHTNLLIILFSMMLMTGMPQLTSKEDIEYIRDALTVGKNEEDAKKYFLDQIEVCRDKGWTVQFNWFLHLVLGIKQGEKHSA

PIK3CA (human), sequence (P42336 whole entry, looked up): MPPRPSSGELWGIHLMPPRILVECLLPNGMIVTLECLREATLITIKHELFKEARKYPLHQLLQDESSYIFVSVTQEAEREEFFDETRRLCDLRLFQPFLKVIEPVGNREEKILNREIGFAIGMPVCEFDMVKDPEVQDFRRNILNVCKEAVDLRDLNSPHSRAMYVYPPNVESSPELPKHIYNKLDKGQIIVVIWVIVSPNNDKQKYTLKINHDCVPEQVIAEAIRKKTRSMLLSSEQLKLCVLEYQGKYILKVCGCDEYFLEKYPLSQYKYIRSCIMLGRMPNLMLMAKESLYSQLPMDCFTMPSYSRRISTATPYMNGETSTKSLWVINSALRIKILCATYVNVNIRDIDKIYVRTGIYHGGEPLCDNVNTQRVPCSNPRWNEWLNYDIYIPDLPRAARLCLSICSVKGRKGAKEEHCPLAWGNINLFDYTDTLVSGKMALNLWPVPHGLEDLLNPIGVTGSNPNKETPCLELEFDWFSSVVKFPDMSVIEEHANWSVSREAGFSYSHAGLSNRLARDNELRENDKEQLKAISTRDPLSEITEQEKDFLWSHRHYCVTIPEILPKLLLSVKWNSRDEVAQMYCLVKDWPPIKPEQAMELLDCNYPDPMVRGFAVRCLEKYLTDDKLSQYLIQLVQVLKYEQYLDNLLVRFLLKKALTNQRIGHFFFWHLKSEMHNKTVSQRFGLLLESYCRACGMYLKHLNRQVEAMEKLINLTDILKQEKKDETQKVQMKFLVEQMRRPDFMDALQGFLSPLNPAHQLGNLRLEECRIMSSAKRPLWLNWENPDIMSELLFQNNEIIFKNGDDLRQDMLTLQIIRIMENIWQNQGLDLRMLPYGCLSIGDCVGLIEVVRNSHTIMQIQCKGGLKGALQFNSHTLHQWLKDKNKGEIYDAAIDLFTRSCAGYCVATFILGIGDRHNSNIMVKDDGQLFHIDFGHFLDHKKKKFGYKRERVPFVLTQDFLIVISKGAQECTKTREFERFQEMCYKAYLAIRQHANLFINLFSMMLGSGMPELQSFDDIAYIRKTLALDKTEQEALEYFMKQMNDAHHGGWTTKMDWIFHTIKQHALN

| Structure (SMILES) | IC50 (PIK3CA (human)) | IC50 (PIK3CG (human)) |
| --- | --- | --- |
| Cn1cc(/C=C2\Oc3cc(O)cc(O)c3C2=O)c2c(-c3cncnc3)ccnc21 | 18 nM | 149 nM |
| Cn1cc(/C=C2\Oc3ccc(NC(=O)NC4CC4)cc3C2=O)c2c(N3CC4CCC(C3)O4)ccnc21 | 289 nM | 2130 nM |
| Cn1cc(/C=C2\Oc3cc(O)cc(O)c3C2=O)c2c(-c3ccc(OC(F)(F)F)cc3)ccnc21 | 183 nM | 139 nM |
| CN(C)C(=O)CN(C)C(=O)C1CCN(c2ccnc3c2c(C=C2Oc4ccc(NC(=O)Nc5cccnc5)cc4C2=O)cn3C)CC1 | 4230 nM | 6830 nM |
| Cn1cc(/C=C2\Oc3cccc(O)c3C2=O)c2c(-c3ccc[nH]3)ccnc21 | 381 nM | 2090 nM |
| COc1ccc(-c2ccnc3c2c(/C=C2\Oc4cc(O)cc(O)c4C2=O)cn3C)cc1 | 52 nM | 157 nM |
| Cn1cc(/C=C2\Oc3ccc(NC(=O)Nc4ccc(Cl)nc4)cc3C2=O)c2c(N3CC4CCC(C3)O4)ccnc21 | 747 nM | 2520 nM |
| Cn1cc(/C=C2\Oc3cccc(O)c3C2=O)c2c(-c3ccc(C4=NCCCO4)cc3)ccnc21 | 109 nM | 276 nM |
| Cn1cc(/C=C2\Oc3cccc(O)c3C2=O)c2c(-c3ccc(C(=O)N4CCOCC4)cc3)ccnc21 | 49 nM | 54 nM |
| CN(C)S(=O)(=O)c1ccc(-c2ccnc3c2c(/C=C2\Oc4cccc(O)c4C2=O)cn3C)cc1 | 38 nM | 106 nM |

Source: the Kinase Knowledgebase extract (Sharma et al. 2016)
